From patent publication US20240034753A1, “THERAPEUTIC PEPTIDES” (COHBAR, INC., priority 2020, published 2024)
Square brackets hold non-standard residues; d marks the D form. Ends that are not written are not given here. Peptide text beside a SMILES is read from it.

Key:
[1] = tested on: A172 Cells; experiment: PrestoBlue cell viability assay; format: cell-based; details: human, 10 μM
Procedure: The effect of the peptides on cell viability can be assessed in cultured cells using suitable assay of viability such as the PrestoBlue® assay (Thermo Fisher Scientific, Waltham, MA). Peptides were initially prepared as 10 mM stock in DMSO and tested at a final concentration of 10 μM (0.1% DMSO). […] PrestoBlue Assay Reagent was purchased from Thermo Fisher Scientific. A172 human brain glioblastoma cell line was purchased from American Type Culture Collection (Manassas, VA). A172 cells were grown in DMEM supplemented with 10% FBS with 100 IU/ml penicillin and 100 μg/ml streptomycin. Cultures were maintained at 37° C. in a humidified atmosphere of 5% CO2/95% air. A172 cells were seeded at 8,000 cells per well on 96-well plates. […] Cell viability was determined using a PrestoBlue Assay reagent […] according to the manufacturer's instructions. Absorption for each sample well on the plate was measured using a Cytation 3 plate reader at 560 nm and 590 nm (BioTek, Winooski, VT). Activity was calculated relative to 0.1% DMSO untreated control. Treatment with 0.1% DMSO alone was used as the cell viability activity control. The relative standard deviation of the DMSO control was <5%.

[2] = tested on: 3T3-L1 Mouse Adipocytes; experiment: Free fatty acid levels in cultured mouse adipocytes stimulated with isoproterenol; format: cell-based; details: peptide 10 μM, 20-22 hours then 3 hours with 1 nM isoproterenol; relative to isoproterenol treated cells
Procedure: The effect of the peptides on fatty acid metabolism can be assessed using an assay of free fatty acid levels in cultured cells such as mouse adipocytes. Peptides were initially prepared as 10 mM stock in DMSO and used at a final concentration of 10 μM (0.1% DMSO). […] Mouse 3T3-L1 cells purchased from ZenBio were seeded at 3,000 cells per well in 96-well plates in Pre-adipocyte Medium (Zen-Bio) and grown to confluence at 37° C. in a humidified atmosphere of 5% CO2/95% air. Two days after confluence, cells were placed in Adipocyte Differentiation Medium (Zen-Bio) and cultured for three additional days at 37° C. in a humidified atmosphere of 5% CO2/95% air. The culture media was then replaced with Adipocyte Maintenance Medium (Zen-Bio) and the cells maintained for an additional 9-12 days at 37° C. in a humidified atmosphere of 5% CO2/95% air with partial medium replacement every other day. Following 12-15 days of differentiation, test peptides were added at a final concentration of 10 μM in 0.1% DMSO and incubated for 20-22 hours in Adipocyte Maintenance Medium at 37° C. in a humidified atmosphere of 5% CO2/95% air. After 20-22 hours, 1 nM isoproterenol was added to all wells except untreated controls and test peptides were replenished. Insulin at 100 nM was added to control wells. Cells were incubated for 3 hours in Assay Buffer (Zen-Bio) at 37° C. in a humidified atmosphere of 5% CO2/95% air. Free fatty acid concentrations in the media were determined using a Free Fatty Acid Assay kit (Zen-Bio) according to the manufacturer's instructions using a Cytation 3 plate reader at 540 nm (BioTek, Winooski, VT). Absorbance values were corrected for untreated background and expressed relative to isoproterenol treated cells. Treatment with isoproterenol (1 nM) alone was used as the free fatty acid level stimulatory control. The relative standard deviation of the isoproterenol control was <10%. […] Free fatty acid levels for insulin (100 nM) treatment were <5% of the isoproterenol control value.

[3] = tested on: SH-SY5Y Neuroblastoma Cells; experiment: ATP levels (CellTiter-Glo); format: cell-based, human; details: peptide 10 μM, 18-20 hours, relative to 0.1% DMSO treated control
Procedure: The effect of the peptides on cellular metabolism can be assessed using an assay of ATP levels in cultured cells such as human neuroblastoma cells. Peptides were initially prepared as 10 mM stock in DMSO and used at a final concentration of 10 μM (0.1% DMSO). […] CellTiter-Glo® Assay kit was purchased from Promega. SH-SY5Y human bone marrow neuroblastoma cell line was purchased from American Type Culture Collection (Manassas, VA) and licensed from Memorial Sloan-Kettering Cancer Center (New York, NY). SH-SY5Y cells were grown in DMEM/F12 medium supplemented with 10% FBS with 100 IU/ml penicillin and 100 μg/ml streptomycin. Cultures were maintained at 37° C. in a humidified atmosphere of 5% CO2/95% air. SH-SY5Y cells were seeded at 30,000 cells per well on 96-well plates. […] ATP levels were determined using a CellTiter-Glo Assay kit (Promega) according to the manufacturer's instructions. Luminescence for each sample well on the plate was measured using a Cytation 3 plate reader (BioTek, Winooski, VT). Activity was calculated relative to 0.1% DMSO treated control. The relative standard deviation of the result for the 0.1% DMSO treated control was <5%.

[4] = tested on: SH-SY5Y Neuroblastoma Cells Exposed to Staurosporine; experiment: ATP levels in cells exposed to staurosporine (CellTiter-Glo); format: cell-based, human; details: peptide 10 μM plus staurosporine (40 μM), 18-20 hours; <100% cytoprotective, >100% synergistic
Procedure: Peptides were initially prepared as 10 mM stock in DMSO and tested at a final concentration of 10 μM (0.1% DMSO). […] […] CellTiter-Glo® Assay kit was purchased from Promega. SH-SY5Y human neuroblastoma cell line was purchased from American Type Culture Collection (Manassas, VA) and licensed from Memorial Sloan-Kettering Cancer Center (New York, NY). SH-SY5Y cells were grown in DMEM/F12 medium supplemented with 10% FBS with 100 IU/ml penicillin and 100 μg/ml streptomycin. Cultures were maintained at 37° C. in a humidified atmosphere of 5% CO2/95% air. SH-SY5Y cells were seeded at 30,000 cells per well on 96-well plates. […] ATP levels were determined using a CellTiter-Glo Assay kit (Promega) according to the manufacturer's instructions. Luminescence for each sample well on the plate was measured using a Cytation 3 plate reader (BioTek, Winooski, VT). […] A value less than 100% is indicative of a cytoprotective effect, while a value greater than 100% is indicative of a synergistic effect on viability.

Row | Molecule | PrestoBlue cell viability, Percent of Control Activity [1] [%] | Free Fatty Acid Levels, MEAN %ISO [2] [%] | ATP Levels, % Control [3] [%] | Percent of ATP Reduction Induced by Control [4] [%]
1 | GWVLLYDRHVIGGSLCVVVQVEAY [compound 22] | 96.5 | 84.7 | 103.5 | 73.1
2 | CC[C@H](C)[C@H](NC(=O)[C@@H](NC(=O)[C@H](Cc1c[nH]cn1)NC(=O)[C@H](CCCNC(=N)N)NC(=O)[C@H](CC(=O)O)NC(=O)[C@H](Cc1ccc(O)cc1)NC(=O)[C@H](CC(C)C)NC(=O)[C@H](CC(C)C)NC(=O)[C@@H](NC(=O)[C@@H](N)Cc1c[nH]c2ccccc12)C(C)C)C(C)C)C(=O)NCC(=O)NCC(=O)N[C@@H](CO)C(=O)N[C@@H](CC(C)C)C(=O)N[C@@H](CS)C(=O)N[C@H](C(=O)N[C@H](C(=O)N[C@H](C(=O)N[C@@H](CCC(N)=O)C(=O)N[C@H](C(=O)N[C@@H](CCC(=O)O)C(=O)N[C@H](C)C(=O)O)C(C)C)C(C)C)C(C)C)C(C)C [compound 24] (H-WVLLYDRHVIGGSLCVVVQVE[dA]-OH; N-terminus and C-terminus assumed) | 96.7 | 93.7 | 98.3 | 80.4
3 | CC[C@H](C)[C@H](NC(=O)[C@@H](NC(=O)[C@H](Cc1c[nH]cn1)NC(=O)[C@H](CCCNC(=N)N)NC(=O)[C@H](CC(=O)O)NC(=O)[C@H](Cc1ccc(O)cc1)NC(=O)[C@H](CC(C)C)NC(=O)[C@H](CC(C)C)NC(=O)[C@@H](NC(=O)[C@@H](N)Cc1c[nH]c2ccccc12)C(C)C)C(C)C)C(=O)NCC(=O)NCC(=O)N[C@@H](CO)C(=O)N[C@@H](CC(C)C)C(=O)N[C@@H](CS)C(=O)N[C@H](C(=O)N[C@@H](CCC(N)=O)C(=O)N[C@H](C(=O)N[C@@H](CCC(N)=O)C(=O)N[C@H](C(=O)N[C@@H](CCC(=O)O)C(=O)N[C@H](C)C(=O)O)C(C)C)C(C)C)C(C)C [compound 25] (H-WVLLYDRHVIGGSLCVQVQVE[dA]-OH; N-terminus and C-terminus assumed) | 96.5 | 91.6 | 106.9 | 82.7
4 | CC[C@H](C)[C@H](NC(=O)[C@H](CC(C)C)NC(=O)[C@H](C)NC(=O)[C@@H](N)CCSC)C(=O)N[C@@H](CC(=O)O)C(=O)N[C@H](C(=O)N[C@@H](CC(C)C)C(=O)N[C@H](C(=O)N[C@@H](CC(C)C)C(=O)N[C@H](C)C(=O)O)C(C)C)[C@@H](C)O [compound 5] (H-MALIDTLVL[dA]-OH; N-terminus and C-terminus assumed) | 97.0 | 95.7 | 97.1 | 106.1
5 | CC[C@H](C)[C@H](NC(=O)[C@H](Cc1c[nH]c2ccccc12)NC(=O)[C@H](CCC(N)=O)NC(=O)[C@@H](N)CCCNC(=N)N)C(=O)N[C@@H](CC(C)C)C(=O)N[C@@H](Cc1c[nH]cn1)C(=O)N[C@@H](CC(N)=O)C(=O)N[C@H](C)C(=O)NCC(=O)N[C@@H](CCSC)C(=O)N[C@@H](CO)C(=O)N[C@@H](Cc1ccccc1)C(=O)N[C@@H](Cc1ccccc1)C(=O)N[C@@H](CS)C(=O)O [compound 14] (H-RQWILHN[dA]GMSFFC-OH; N-terminus and C-terminus assumed) | 97.5 | 70.4 | 98.4 | 93.6
